Results on 27 molecules are retold here after patent publication US9409892B2, “4-hydroxy-isoquinoline compounds as HIF hydroxylase inhibitors” (FIBROGEN, INC., priority 2012, dated 2016).

Test [1] has as its target PHD2 (EGLN1) (Homo sapiens (Human), UniProt Q9GZT9). The test can be described thus: HIF-PH assay (14CO2 capture), PHD2 enzyme inhibition. Format: biochemical. To be noted: Table 1.
For test [2], the target named is PHD1 (EGLN2) (Homo sapiens (Human), UniProt Q96KS0). Nature of the test: HIF-PH assay (14CO2 capture), PHD1 enzyme inhibition. Format: biochemical. To be noted: Table 1; for PHD2/PHD1: ratio of the IC50 of the compound for each enzyme.
The mark [3] stands for this setting: individual measurement, read-out: IC50 (μM) PHD2.
The mark [4] stands for this setting: individual measurement, read-out: IC50 (μM) PHD1.

Several values for one entry are separate records, joined by “and”; a condition that tells them apart may be missing. Identical values can stand only once. Like-named read-outs stand apart in the source and are kept apart here.

Chain of PHD2 (EGLN1) (Q9GZT9 whole entry): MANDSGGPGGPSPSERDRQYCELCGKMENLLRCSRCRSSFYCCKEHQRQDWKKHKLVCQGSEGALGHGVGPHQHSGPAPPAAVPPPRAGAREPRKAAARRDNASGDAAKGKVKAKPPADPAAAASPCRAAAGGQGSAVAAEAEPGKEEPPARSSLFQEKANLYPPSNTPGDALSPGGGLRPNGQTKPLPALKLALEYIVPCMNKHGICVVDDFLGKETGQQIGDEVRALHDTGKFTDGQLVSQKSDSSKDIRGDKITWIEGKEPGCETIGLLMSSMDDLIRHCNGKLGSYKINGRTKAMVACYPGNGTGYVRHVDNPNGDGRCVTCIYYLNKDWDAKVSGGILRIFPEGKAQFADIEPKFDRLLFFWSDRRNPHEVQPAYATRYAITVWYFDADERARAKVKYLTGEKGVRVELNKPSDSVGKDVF
Chain of PHD1 (EGLN2) (Q96KS0 whole entry): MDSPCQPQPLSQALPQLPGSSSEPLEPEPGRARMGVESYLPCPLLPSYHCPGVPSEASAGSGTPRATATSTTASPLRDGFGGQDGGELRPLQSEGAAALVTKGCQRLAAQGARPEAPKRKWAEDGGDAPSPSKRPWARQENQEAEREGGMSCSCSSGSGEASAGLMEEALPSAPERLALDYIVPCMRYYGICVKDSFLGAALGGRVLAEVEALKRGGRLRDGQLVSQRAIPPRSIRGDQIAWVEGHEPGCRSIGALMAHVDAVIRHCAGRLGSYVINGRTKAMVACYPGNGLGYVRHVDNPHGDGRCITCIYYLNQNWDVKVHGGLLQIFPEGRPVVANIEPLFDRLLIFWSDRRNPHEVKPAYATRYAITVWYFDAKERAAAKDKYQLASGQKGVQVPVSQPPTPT

As a reminder, the IC50 is the point on the concentration scale where inhibition reaches its midpoint. `CC[C@H](CC(=O)O)NC(=O)c1nc(C#N)c2cc(Oc3ccccc3)ccc2c1O` [Compound 63, 3-(R)-[(1-Cyano-4-hydroxy-7-phenoxy-isoquinoline-3-carbonyl)-amino]-pentanoic acid]: the half-inhibitory concentration (IC50) is 26.9 µM in test [1] (setting [3]) and 2.82 µM in test [2] (setting [4]). For the same molecule, the PHD2/PHD1 in test [2] came out at 10.

As to `C[C@H](CC(=O)O)NC(=O)c1nc(C#N)c2cc(Oc3ccccc3)ccc2c1O` [Compound 64, 3-(R)-[(1-Cyano-4-hydroxy-7-phenoxy-isoquinoline-3-carbonyl)-amino]-butyric acid], the IC50 in test [1] (setting [3]) was 12.6 µM; in test [2] (setting [4]), 0.93 µM. Also, the PHD2/PHD1 in test [2] was 14.

On to `N#Cc1nc(C(=O)NCC(F)(F)C(=O)O)c(O)c2ccc(Oc3ccccc3)cc12` [Compound 65, 3-[(1-Cyano-4-hydroxy-7-phenoxy-isoquinoline-3-carbonyl)-amino]-2,2-difluoro-propionic acid], for which the results for the IC50 in test [1] (setting [3]) and in test [2] (setting [4]) were 5.99 µM and 0.73 µM, respectively. Moreover, the PHD2/PHD1 in test [2] amounted to 8.

With `CC(C)CC(CC(=O)O)NC(=O)c1nc(C#N)c2cc(Oc3ccccc3)ccc2c1O` (centres unmarked) [Compound 66, 3-[(1-Cyano-4-hydroxy-7-phenoxy-isoquinoline-3-carbonyl)-amino]-5-methyl-hexanoic acid], the IC50 in test [1] (average of multiple independent measurements, read-out: IC50 (μM) PHD2 avg.) is 53.5 µM; in test [1] (setting [3]), 26.5 µM and 80.5 µM; in test [2] (average of multiple independent measurements, read-out: IC50 (μM) PHD1 avg.), 5.52 µM; in test [2] (setting [4]), 6.23 µM and 4.8 µM. In addition, in test [2] (average of the ratios of multiple independent measurements), the PHD2/PHD1 avg. turned out to be 10.5 avg.

As for `C[C@@H](NC(=O)c1nc(C#N)c2cc(Oc3ccccc3)ccc2c1O)[C@@H](C)C(=O)O` [Compound 69, (2R,3R)-3-[(1-Cyano-4-hydroxy-7-phenoxy-isoquinoline-3-carbonyl)-amino]-2-methyl-butyric acid], the figures for the half-maximal inhibitory concentration (IC50) in test [1] (setting [3]) and in test [2] (setting [4]) were 64.1 µM and 2.43 µM, respectively. For the same molecule, the PHD2/PHD1 in test [2] is recorded as 26.

`C[C@H](C(=O)O)[C@@H](C)NC(=O)c1nc(C#N)c2cc(Oc3ccccc3)ccc2c1O` [Compound 70, (2S,3R)-3-[(1-Cyano-4-hydroxy-7-phenoxy-isoquinoline-3-carbonyl)-amino]-2-methyl-butyric acid]: the IC50 is 65.8 µM in test [1] (setting [3]) and 1.86 µM in test [2] (setting [4]). Further, in test [2], the PHD2/PHD1 turned out to be 35.

Consider `C[C@H](NC(=O)c1nc(C#N)c2cc(Oc3ccccc3)ccc2c1O)[C@H](C)C(=O)O` [Compound 71, (2S,3S)-3-[(1-Cyano-4-hydroxy-7-phenoxy-isoquinoline-3-carbonyl)-amino]-2-methyl-butyric acid], for which the values for the IC50 in test [1] (setting [3]) and in test [2] (setting [4]) were 107 µM and 2.77 µM, respectively. In test [2], the PHD2/PHD1 was 39.

With `C[C@H](NC(=O)c1nc(C#N)c2cc(Oc3ccccc3)ccc2c1O)[C@@H](C)C(=O)O` [Compound 72, (2R,3S)-3-[(1-Cyano-4-hydroxy-7-phenoxy-isoquinoline-3-carbonyl)-amino]-2-methyl-butyric acid], the IC50 in test [1] (setting [3]) was 200 µM; in test [2] (setting [4]), 11.8 µM. Moreover, in test [2], the PHD2/PHD1 is recorded as 17.

Turning to `C[C@](O)(CNC(=O)c1nc(C#N)c2cc(Oc3ccccc3)ccc2c1O)C(=O)O` [Compound 73, (S)-3-(1-Cyano-4-hydroxy-7-phenoxyisoquinoline-3-carboxamido)-2-hydroxy-2-methylpropanoic acid], the IC50 in test [1] (setting [3]) is 3.38 µM; in test [2] (setting [4]) it was 0.74 µM. For the same molecule, in test [2], the PHD2/PHD1 is listed as 5.

Consider `N#Cc1nc(C(=O)N[C@H](Cc2ccccc2)[C@H](O)C(=O)O)c(O)c2ccc(Oc3ccccc3)cc12` [Compound 74, (2S,3R)-3-(1-Cyano-4-hydroxy-7-phenoxyisoquinoline-3-carboxamido)-2-hydroxy-4-phenylbutanoic acid], for which the IC50 in test [1] (setting [3]) is 7.64 µM; in test [2] (setting [4]) it was 1.55 µM. In test [2], the PHD2/PHD1 amounted to 5.

For `N#Cc1nc(C(=O)N[C@H](Cc2ccccc2)[C@@H](O)C(=O)O)c(O)c2ccc(Oc3ccccc3)cc12` [Compound 75, (2R,3R)-3-(1-Cyano-4-hydroxy-7-phenoxyisoquinoline-3-carboxamido)-2-hydroxy-4-phenylbutanoic acid], the IC50 turned out to be 18.9 µM in test [1] (setting [3]) and 1.17 µM in test [2] (setting [4]). Besides, in test [2], the PHD2/PHD1 amounted to 16.

As to `N#Cc1nc(C(=O)NCC(O)C(=O)O)c(O)c2ccc(Oc3ccccc3)cc12` (centres unmarked) [Compound 76, 3-[(1-Cyano-4-hydroxy-7-phenoxy-isoquinoline-3-carbonyl)-amino]-2-hydroxy-propionic acid], the IC50 in test [1] (setting [3]) was 2.86 µM; in test [2] (setting [4]), 0.16 µM. Moreover, the PHD2/PHD1 in test [2] was 18.

Turning to `CC(C)(CNC(=O)c1nc(C#N)c2cc(Oc3ccccc3)ccc2c1O)C(=O)O` [Compound 77, 3-[(1-Cyano-4-hydroxy-7-phenoxy-isoquinoline-3-carbonyl)-amino]-2,2-dimethyl-propionic acid], the IC50 in test [1] (setting [3]) was 9.12 µM; in test [2] (setting [4]), 0.41 µM. For the same molecule, the PHD2/PHD1 in test [2] is listed as 22.

For the molecule `C[C@@H](CC(=O)O)NC(=O)c1nc(C#N)c2cc(Oc3ccccc3)ccc2c1O` [Compound 78, 3-(S)-[(1-Cyano-4-hydroxy-7-phenoxy-isoquinoline-3-carbonyl)-amino]-butyric acid], the IC50 stood at 96.8 µM in test [1] (setting [3]) and 3.27 µM in test [2] (setting [4]). Further, the PHD2/PHD1 in test [2] worked out at 30.

As for `N#Cc1nc(C(=O)NC[C@H](O)C(=O)O)c(O)c2ccc(Oc3ccccc3)cc12` [Compound 79, 3-[(1-Cyano-4-hydroxy-7-phenoxy-isoquinoline-3-carbonyl)-amino]-2-(S)-hydroxy-propionic acid], the half-maximal inhibitory concentration (IC50) in test [1] (setting [3]) was determined as 1.69 µM; in test [2] (setting [4]) it was 0.11 µM. In test [2], the PHD2/PHD1 was determined as 15.

For `N#Cc1nc(C(=O)NCCCC(=O)O)c(O)c2ccc(Oc3ccccc3)cc12` [Compound 80, 4-[(1-Cyano-4-hydroxy-7-phenoxy-isoquinoline-3-carbonyl)-amino]-butyric acid], the half-maximal inhibitory concentration (IC50) in test [1] (setting [3]) was determined as 0.71 µM; in test [2] (setting [4]) it was 0.14 µM. Further, the PHD2/PHD1 in test [2] is 5.

For the molecule `N#Cc1nc(C(=O)NCCCCC(=O)O)c(O)c2ccc(Oc3ccccc3)cc12` [Compound 81, 5-[(1-Cyano-4-hydroxy-7-phenoxy-isoquinoline-3-carbonyl)-amino]-pentanoic acid], the IC50 in test [1] (setting [3]) was 4.95 µM; in test [2] (setting [4]), 0.42 µM. Besides, in test [2], the PHD2/PHD1 came out at 12.

Consider `N#Cc1nc(C(=O)NCC[C@H](O)C(=O)O)c(O)c2ccc(Oc3ccccc3)cc12` [Compound 83, 4-[(1-Cyano-4-hydroxy-7-phenoxy-isoquinoline-3-carbonyl)-amino]-2-(S)-hydroxy-butyric acid], for which the IC50 in test [1] (setting [3]) stood at 2.75 µM; in test [2] (setting [4]) it was 0.24 µM. Moreover, the PHD2/PHD1 in test [2] is reported as 12.

With `CC(C)(CCNC(=O)c1nc(C#N)c2cc(Oc3ccccc3)ccc2c1O)C(=O)O` [Compound 84, 4-[(1-Cyano-4-hydroxy-7-phenoxy-isoquinoline-3-carbonyl)-amino]-2,2-dimethyl-butyric acid], the half-maximal inhibitory concentration (IC50) in test [1] (setting [3]) was determined as 2.11 µM; in test [2] (setting [4]), 0.34 µM. Besides, the PHD2/PHD1 in test [2] was determined as 6.

As for `CC(C)(C)OC(=O)N[C@@H](CNC(=O)c1nc(C#N)c2cc(Oc3ccccc3)ccc2c1O)C(=O)O` [Compound 85, 2-(S)-tert-Butoxycarbonylamino-3-[(1-cyano-4-hydroxy-7-phenoxy-isoquinoline-3-carbonyl)-amino]-propionic acid], the concentration for half-maximal inhibition (IC50) in test [1] (setting [3]) stood at 112 µM; in test [2] (setting [4]), 19.1 µM. The PHD2/PHD1 in test [2] came out at 6.

`N#Cc1nc(C(=O)NC[C@H](N)C(=O)O)c(O)c2ccc(Oc3ccccc3)cc12` [Compound 86, 2-(S)-Amino-3-[(1-cyano-4-hydroxy-7-phenoxy-isoquinoline-3-carbonyl)-amino]-propionic acid]: the figures for the IC50 in test [1] (setting [3]) and in test [2] (setting [4]) were 51.9 µM and 2.51 µM, respectively. In addition, the PHD2/PHD1 in test [2] was determined as 21.

Take `N#Cc1nc(C(=O)NC[C@H](NC(=O)OCc2ccccc2)C(=O)O)c(O)c2ccc(Oc3ccccc3)cc12` [Compound 87, 2-(S)-Benzyloxycarbonylamino-3-[(1-cyano-4-hydroxy-7-phenoxy-isoquinoline-3-carbonyl)-amino]-propionic acid]: the IC50 in test [1] (setting [3]) amounted to 27.5 µM; in test [2] (setting [4]), 3.56 µM. Besides, in test [2], the PHD2/PHD1 was 8.

Regarding `N#Cc1nc(C(=O)N[C@H]2CC[C@H](C(=O)O)CC2)c(O)c2ccc(Oc3ccccc3)cc12` [Compound 88, trans-4-[(1-Cyano-4-hydroxy-7-phenoxy-isoquinoline-3-carbonyl)-amino]-cyclohexanecarboxylic acid], the IC50 in test [1] (setting [3]) is 93.3 µM; in test [2] (setting [4]), 14.1 µM. Moreover, the PHD2/PHD1 in test [2] is 7.

Regarding `CC(C)(CNC(=O)c1nc(C#N)c2cc(Oc3ccccc3)ccc2c1O)CC(=O)O` [Compound 89, 4-[(1-Cyano-4-hydroxy-7-phenoxy-isoquinoline-3-carbonyl)-amino]-3,3-dimethyl-butyric acid], the figures for the IC50 in test [1] (setting [3]) and in test [2] (setting [4]) were 13.6 µM and 2.86 µM, respectively. The PHD2/PHD1 in test [2] was found to be 5.

For `N#Cc1nc(C(=O)NC2(CC(=O)O)CCCCC2)c(O)c2ccc(Oc3ccccc3)cc12` [Compound 90, {1-[(1-Cyano-4-hydroxy-7-phenoxy-isoquinoline-3-carbonyl)-amino]-cyclohexyl}-acetic acid], the IC50 is 56.3 µM in test [1] (setting [3]) and 7.32 µM in test [2] (setting [4]). Further, the PHD2/PHD1 in test [2] stood at 8.

Consider `N#Cc1nc(C(=O)NC(CC(=O)O)c2ccccc2)c(O)c2ccc(Oc3ccccc3)cc12` (centres unmarked) [Compound 91, 3-[(1-Cyano-4-hydroxy-7-phenoxy-isoquinoline-3-carbonyl)-amino]-3-phenyl-propionic acid], for which the half-maximal inhibitory concentration (IC50) is 11.3 µM in test [1] (setting [3]) and 1.91 µM in test [2] (setting [4]). Further, the PHD2/PHD1 in test [2] is reported as 6.

In the case of `C[C@H](CNC(=O)c1nc(C#N)c2cc(Oc3ccccc3)ccc2c1O)C(=O)O` [Compound 92, 3-[(1-Cyano-4-hydroxy-7-phenoxy-isoquinoline-3-carbonyl)-amino]-2-(R)-methyl-propionic acid], the IC50 was determined as 3.88 µM in test [1] (setting [3]) and 0.28 µM in test [2] (setting [4]). The PHD2/PHD1 in test [2] was 14.
